Test results published in patent publication US9051339B2, “Sulfur-containing bicyclic compound” (Astellas Pharma Inc., priority 2013, dated 2015).

Assays:
[1] = test system: pressure pain threshold in the gastrocnemius muscle; experiment: Pressure pain threshold in model with reserpine-induced muscle pain; type: in vivo; details: oral, measured after 30 minutes; male SD rat; reserpine 1 mg/kg s.c. for 3 days
Protocol: This model is a model that mimics the pathological conditions of fibromyalgia. This test was carried out on the basis of the description in Pain, 2009, vol. 146, p. 26-33. Reserpine (1 mg/kg) was subcutaneously administered to the male SD rat (Japan SLC, Inc.)) once per day for 3 days. After 5 days, the solvent or the test drug was orally administered. After 30 minutes, the pressure pain threshold value was measured using a Randall-Selitto instrument (Muromachi Kikai Co., Ltd.) in the gastrocnemius muscle. The significant difference assay between the solvent group and the group administered with the test drug was carried out by comparison between the groups using a Student's t-test or a Dunnett's multiple comparison test. Here, the value obtained by administering a solvent to a normal rat not administered with reserpine was taken as 100%, and the value of the reserpine group administered with a solvent was taken as 0%. In each assay, if p<0.05 was satisfied, it was determined that there was a significant difference.

[2] = molecular target: T1, heterodimers of GABAB1b and GABAB2 (Homo sapiens, UniProt O75899+Q9UBS5); experiment: FLIPR intracellular calcium mobilization in HEK293 cells stably expressing GABAB receptor; type: cell-based; details: 100 μM GABA = 100%; for EC50: concentration raising reaction rate from 5% with 1 μM GABA to 50%, read-out: Potency (PAM Potency of GABAB); for Emax: maximum reaction rate in presence of 1 μM GABA, test drug up to 30 μM, read-out: Efficacy (PAM Efficacy of GABAB)
T1 construct: host or cells: HEK293
T1 sequence (Q9UBS5 1-844 isoform Q9UBS5-2): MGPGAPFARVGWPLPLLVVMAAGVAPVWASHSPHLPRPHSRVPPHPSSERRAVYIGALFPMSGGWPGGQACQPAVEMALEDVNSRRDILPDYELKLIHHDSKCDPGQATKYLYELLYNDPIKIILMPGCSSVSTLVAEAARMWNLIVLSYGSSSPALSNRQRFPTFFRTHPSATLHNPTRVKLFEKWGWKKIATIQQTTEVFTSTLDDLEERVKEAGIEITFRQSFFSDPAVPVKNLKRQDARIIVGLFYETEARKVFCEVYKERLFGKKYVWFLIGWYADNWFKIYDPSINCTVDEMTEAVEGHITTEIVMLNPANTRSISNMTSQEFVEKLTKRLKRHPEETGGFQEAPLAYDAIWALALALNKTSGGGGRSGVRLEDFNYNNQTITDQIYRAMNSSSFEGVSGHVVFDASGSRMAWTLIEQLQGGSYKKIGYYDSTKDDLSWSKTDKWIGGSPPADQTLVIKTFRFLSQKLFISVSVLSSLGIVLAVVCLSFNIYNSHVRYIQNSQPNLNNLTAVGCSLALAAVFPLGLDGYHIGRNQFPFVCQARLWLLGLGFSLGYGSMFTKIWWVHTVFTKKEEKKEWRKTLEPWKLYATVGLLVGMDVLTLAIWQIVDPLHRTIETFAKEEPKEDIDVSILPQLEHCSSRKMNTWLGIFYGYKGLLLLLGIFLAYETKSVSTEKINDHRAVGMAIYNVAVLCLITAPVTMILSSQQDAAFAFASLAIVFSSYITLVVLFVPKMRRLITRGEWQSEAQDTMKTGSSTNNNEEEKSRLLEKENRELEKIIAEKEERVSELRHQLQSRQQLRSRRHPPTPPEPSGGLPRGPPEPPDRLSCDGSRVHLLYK
T1 sequence (O75899 42-941): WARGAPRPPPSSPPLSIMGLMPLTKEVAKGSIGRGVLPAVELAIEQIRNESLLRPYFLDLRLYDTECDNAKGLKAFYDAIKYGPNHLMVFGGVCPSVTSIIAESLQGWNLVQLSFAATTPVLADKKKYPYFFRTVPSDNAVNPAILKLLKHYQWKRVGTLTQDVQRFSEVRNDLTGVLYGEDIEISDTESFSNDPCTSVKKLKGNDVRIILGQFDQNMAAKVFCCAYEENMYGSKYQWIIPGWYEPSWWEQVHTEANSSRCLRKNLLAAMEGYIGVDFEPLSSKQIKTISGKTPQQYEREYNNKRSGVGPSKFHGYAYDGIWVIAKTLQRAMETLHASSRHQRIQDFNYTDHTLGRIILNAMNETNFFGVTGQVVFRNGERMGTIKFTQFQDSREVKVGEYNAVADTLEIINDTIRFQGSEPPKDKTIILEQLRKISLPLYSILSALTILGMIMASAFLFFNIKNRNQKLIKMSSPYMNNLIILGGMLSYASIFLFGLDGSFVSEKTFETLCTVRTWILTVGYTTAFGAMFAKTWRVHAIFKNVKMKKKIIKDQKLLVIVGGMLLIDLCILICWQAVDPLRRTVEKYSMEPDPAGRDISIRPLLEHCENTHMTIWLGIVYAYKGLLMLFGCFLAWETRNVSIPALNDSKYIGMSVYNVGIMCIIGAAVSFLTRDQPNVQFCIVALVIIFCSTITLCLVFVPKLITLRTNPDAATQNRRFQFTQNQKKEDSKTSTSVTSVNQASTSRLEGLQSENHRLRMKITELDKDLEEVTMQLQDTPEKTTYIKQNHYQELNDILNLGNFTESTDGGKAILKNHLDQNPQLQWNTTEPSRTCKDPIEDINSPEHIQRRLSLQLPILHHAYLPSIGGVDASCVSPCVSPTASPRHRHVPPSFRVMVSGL
From the text: A natural GABAB receptor has a heterodimeric structure consisting of two kinds of subunits of GABAB1 and GABAB2 (Nature, 1997, vol. 386, p. 239-246) In the subunit of GABAB1, two major splice variants referred to as GABAB1a and 1b exist. However, the two variants have no difference in the pharmacological effects in the receptor-downstreaming signals (Nature, 1998, vol. 396, p. 683-687).
In HEK293 cells expressing the heterodimers of GABAB1b and GABAB2, the PAM action in the presence of GABA was measured over time with a change in the intracellular Ca^2+ concentration using RFU (relative fluorescence units) as an index, and evaluated.
All vectors, wherein each vector was formed by human GABAB1b (NM_021903. 2), GABAB2 (NM_005458. 7), or Gαqo chimera, were incorporated by lipofection to establish stably expressing human embryonic kidney-derived cell lines, HEK293 cells (ATCC).
The Gαqo chimera was fabricated by the following method. The genes coding human Gαq (NM_002072.3) were cloned, and C-terminal 15 base pairs (1107-1121 bp) of ORF (41-1121 bp) of Gaq was substituted with C-terminal 15 base pairs (1948-1962 bp) of ORF (898-1962 bp) of human Gao (NM_138736. 2) into a Gαqo chimera.
A change in the intracellular concentration of calcium mobilized due to activation of a GABAB receptor was measured with a Fluorometric Imaging Plate Reader (FLIPR, Molecular Devices). The stably expressing cells established as described above were proliferated in a D-MEM medium containing a screening agent (0.5 mg/mL G418 Disulfate and 0.2 mg/mL Hydromycin B solution), 1% penicillin/streptomycin, and 10% FCS. About 1×10^4 cells/well were diluted and seeded in a black-wall, 384-well poly-D-lysin-coated plate (Becton Dickinson) in a D-MEM medium containing 10% FCS, but not a selective agent and 1% penicillin/streptomycin. After 24 hours, the medium was removed from the plate, and a Fluo-4 loaded solution (20 μL) was added to each well, followed by incubation at room temperature for 2 hours. The fluorescent reagent loaded solution was removed from each well, the cells were washed with a base buffer three times, and then a base buffer (20 μL) was added thereto, followed by analysis with FLIPR TETRA (Molecular Devices). The base buffer (10 μL) solution of the test drug was added thereto to a final concentration (1 nM to 30 μM) and the measurement of a change in the fluorescence was initiated. Thereafter, GABA (1 μM, 20 μL) was added thereto and the measurement was continued. The change in the fluorescence was measured every two or five seconds.
The maximum reaction rate of 100 μM GABA was taken as 100%. […]

EC50 [2] [nM] | Emax [2] [%] | Structure (SMILES) | MED [1] [mg/kg]
59 | 470 | Cc1nc(CN2CCS(=O)(=O)CC2)c2cc(C3CCC(C)(C)CC3)sc2n1 [Ex2, 6-(4,4-dimethylcyclohexyl)-4-[(1,1-dioxidothiomorpholin-4-yl)methyl]-2-methylthieno[2,3-d]pyrimidine] | 0.03
220 | 273 | Cc1nc(CN2CC[C@@H](O)[C@H](O)C2)c2cc(C3CCC(C)(C)CC3)sc2n1 (single isomer, unassigned) [Ex31, trans-1-{[6-(4,4-dimethylcyclohexyl)-2-methylthieno[2,3-d]pyrimidin-4-yl]methyl}piperidine-3,4-diol] | 
